Patent publication US10071979B2, “Process of producing cycloalkylcarboxamido-indole compounds” (Vertex Pharmaceuticals Incorporated, priority 2010, dated 2018)

Target: T1, ΔF508-CFTR (Homo sapiens, UniProt P13569, DEL508-508)
T1 construct: expressed in transfected cells
Assay: Assays for detecting and measuring ΔF508-CFTR correction properties (membrane potential optical assay, FRET voltage-sensor dyes)
Type: cell-based
Conditions: NIH3T3 mouse fibroblasts stably expressing ΔF508-CFTR; percent activity bins
Description: Assays for Detecting and Measuring ΔF508-CFTR Correction Properties of Compounds
Membrane Potential Optical Methods for Assaying ΔF508-CFTR Modulation Properties of Compounds
The optical membrane potential assay utilized voltage-sensitive FRET sensors described by Gonzalez and Tsien (See, Gonzalez, J. E. and R. Y. Tsien (1995) “Voltage sensing by fluorescence resonance energy transfer in single cells” Biophys J 69(4): 1272-80, and Gonzalez, J. E. and R. Y. Tsien (1997) “Improved indicators of cell membrane potential that use fluorescence resonance energy transfer” Chem Biol 4(4): 269-77) in combination with instrumentation for measuring fluorescence changes such as the Voltage/Ion Probe Reader (VIPR) (See, Gonzalez, J. E., K. Oades, et al. (1999) “Cell-based assays and instrumentation for screening ion-channel targets” Drug Discov Today 4(9): 431-439).
These voltage sensitive assays are based on the change in fluorescence resonant energy transfer (FRET) between the membrane-soluble, voltage-sensitive dye, DiSBAC2(3), and a fluorescent phospholipid, CC2-DMPE, which is attached to the outer leaflet of the plasma membrane and acts as a FRET donor. […] The changes in fluorescence emission were monitored using VIPR™ II, which is an integrated liquid handler and fluorescent detector designed to conduct cell-based screens in 96- or 384-well microtiter plates. […]

T1 sequence (P13569 with tags, fused parts or gaps DEL508-508): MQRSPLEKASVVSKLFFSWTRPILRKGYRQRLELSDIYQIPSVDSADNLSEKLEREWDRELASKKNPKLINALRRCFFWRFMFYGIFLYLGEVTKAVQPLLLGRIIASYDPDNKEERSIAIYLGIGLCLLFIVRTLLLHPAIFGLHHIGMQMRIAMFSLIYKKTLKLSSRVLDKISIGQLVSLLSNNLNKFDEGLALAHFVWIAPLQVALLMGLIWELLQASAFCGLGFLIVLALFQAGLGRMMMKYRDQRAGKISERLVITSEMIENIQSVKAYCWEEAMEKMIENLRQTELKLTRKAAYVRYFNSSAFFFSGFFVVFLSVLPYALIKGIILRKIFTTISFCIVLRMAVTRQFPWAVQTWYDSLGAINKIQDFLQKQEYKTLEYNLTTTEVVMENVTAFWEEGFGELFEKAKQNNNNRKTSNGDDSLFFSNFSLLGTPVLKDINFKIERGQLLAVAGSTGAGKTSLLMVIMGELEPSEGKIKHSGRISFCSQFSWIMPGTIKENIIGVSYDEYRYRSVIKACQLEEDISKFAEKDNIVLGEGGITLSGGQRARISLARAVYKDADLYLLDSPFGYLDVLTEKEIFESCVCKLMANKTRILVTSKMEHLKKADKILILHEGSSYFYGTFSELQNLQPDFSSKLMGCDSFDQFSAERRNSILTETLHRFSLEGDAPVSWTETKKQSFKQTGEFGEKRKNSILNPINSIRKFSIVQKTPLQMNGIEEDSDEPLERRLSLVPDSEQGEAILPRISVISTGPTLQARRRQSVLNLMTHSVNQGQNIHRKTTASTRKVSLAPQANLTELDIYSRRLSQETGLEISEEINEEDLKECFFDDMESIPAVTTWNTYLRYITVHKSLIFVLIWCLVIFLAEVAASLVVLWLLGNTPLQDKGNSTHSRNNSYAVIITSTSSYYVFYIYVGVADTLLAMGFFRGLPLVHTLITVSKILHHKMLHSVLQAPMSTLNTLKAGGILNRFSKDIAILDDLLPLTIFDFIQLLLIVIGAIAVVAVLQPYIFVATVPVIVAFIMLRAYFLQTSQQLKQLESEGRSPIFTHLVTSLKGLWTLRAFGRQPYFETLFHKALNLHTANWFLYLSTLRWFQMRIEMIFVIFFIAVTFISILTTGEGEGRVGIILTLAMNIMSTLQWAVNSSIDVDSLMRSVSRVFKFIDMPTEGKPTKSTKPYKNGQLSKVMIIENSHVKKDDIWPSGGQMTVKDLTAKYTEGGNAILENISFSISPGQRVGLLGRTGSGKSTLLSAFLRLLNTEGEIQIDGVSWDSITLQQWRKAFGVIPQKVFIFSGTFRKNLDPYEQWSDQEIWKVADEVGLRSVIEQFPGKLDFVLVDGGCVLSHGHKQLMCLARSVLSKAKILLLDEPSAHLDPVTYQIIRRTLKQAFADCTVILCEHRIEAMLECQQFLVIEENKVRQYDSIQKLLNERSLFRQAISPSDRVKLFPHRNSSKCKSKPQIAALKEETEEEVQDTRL

CC(C)(CO)c1cc2cc(NC(=O)C3(c4ccc5c(c4)OC(F)(F)O5)CC3)c(F)cc2n1C[C@@H](O)CO [Compound 1, (R)-1-(2,2-difluorobenzo[d][1,3]dioxol-5-yl)-N-(1-(2,3-dihydroxypropyl)-6-fluoro-2-(1-hydroxy-2-methylpropan-2-yl)-1H-indol-5-yl)cyclopropanecarboxamide]
Binned MaxEfficacy (PercentActivity): +++ (100.0 < +++)
